Data taken from US11414387B2, “Oxoacridinyl acetic acid derivatives and methods of use” (Stingthera, Inc., priority 2017, dated 2022).

Legend:
[1] = target: hSTING-WT (Homo sapiens (Human), UniProt Q86WV6, H232R); test: Radiometric filtration binding competition assay, hSTING-WT
[2] = target: T1, hSTING-HAQ (Homo sapiens (Human), UniProt Q86WV6, G230A/H232R/R293Q); test: Radiometric filtration binding competition assay, hSTING-HAQ
Protocol: (§1) A radiometric filtration binding competition assay was performed to quantify the binding affinity of compounds of the present application for the human or mouse STING protein, or associated HAQ human isoform. […] The resulting dose response was fit by non-linear regression to determine an IC50 value, from which a Ki value for each compound was extrapolated.
(§2) The resulting complexes were then filtered, dried, and scintillation fluid was added and the remaining radio signal was measured to determine the degree of compound ligand inhibition. This assay format was optimized for both the WT and HAQ isoforms of the human protein and the mouse orthologue protein.
(§3) Probe Concentration: Minimum concentration that achieved max assay window • g. Assay Format: Scintillation Proximity Bead or Filtration Binding Plate • h. […] Assay incubation times for successive incubation steps
(§4) WT-hSWAT: WT_FBA_HIS-SUMO-hSWAT IC50 (μM) (“WT”=Wild-type); HAQ-hSWAT: HAQ_FBA_HIS-SUMO-hSWAT IC50 (μM) (“HAQ”=human HAQ allele of STING protein); and WT-mSWAT: MOUSE_FBA_HIS-SUMO-mnSWAT IC50 (μM) which is the mouse isoform of STING protein.

[3] = target: hSTING-R232 (Homo sapiens (Human), UniProt Q86WV6, H232R); test: STING differential scanning fluorimetry (DSF) assay, WT human STING; settings: WT (R232) human STING aa140-379, net shift in melting temperature
[4] = target: STING protein (Homo sapiens (Human), UniProt Q86WV6, H232R); test: Cell based reporter assay of IRF activation (IRF-luciferase), THP1-dual-KI R232; settings: read-out: THP1-dual-KI R232_IRF(Luciferase)_Activity Maximum measured (%)
[5] = target: mSTING (Mus musculus, UniProt Q3TBT3); test: Radiometric filtration binding competition assay, mSTING
Protocol: as §1, §2, §3, §4

[6] = target: T1, hSTING-HAQ; test: STING differential scanning fluorimetry (DSF) assay, HAQ human STING; settings: HAQ human STING aa140-379, net shift in melting temperature
Protocol: A STING DSF assay was performed to determine protein thermostability shift in response to small molecule ligand binding. A STING thermostability shift assay based on differential scanning fluorimetry was used to measure (1) the net shift in melting temperature (ΔTm)between the apo and ligand-bound states of the STING protein and (2) the concentration of the thermal denaturation transition (EC50) as a surrogate measure of binding affinity (K). […] Protein in assay buffer was transferred to a 384 well plate and incubated with the hydrophobic fluorescent dye SYBR Orange. A temperature ramp was applied to the plate and the resulting dye fluorescence was plotted as a function of temperature. The first derivative of this function (dF/dT) was then used to extrapolate the melting temperature of the protein at various concentrations of compound and determine the thermal denaturation profile of a protein/compound complex.
• 1. Protein construct (affinity tag removal vs SUMO-fusion construct) • 2. Protein concentration • 3. Dye concentration • 4. Buffer • 5. Thermal ramp velocity • 6. DMSO tolerance • 7. Compound titration parameters • 8. […] 5 μM purified Target STING Protein • 3. 8 μM Sypro Orange Dye • 4. Buffer: 100 mM NaCl, 30 mM HEPES, pH 7.5 • 5. Thermal Ramp: 0.5° C./min • 6. <1% DMSO • 7. 11 point, 2 fold dilution, duplicate, 300 μM high concentrations • 8.

[7] = target: hSTING-CTD (Homo sapiens (Human), UniProt Q86WV6); test: Human STING protein FP competition concentration response assay; format: binding
How it was run: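 Compound, serially diluted 2-fold over 14 concentrations, competes with 2′-Fluo-AHC-c-di-GMP (30 nM) for binding to hSTING-CTD (10 uM) in PBS with 3.35% DMSO at room temperature for 10-20 min. Anisotropy change gives IC50 by sigmoidal four-parameter regression.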

[8] = target: mSTING-CTD (Mus musculus (Mouse), UniProt Q3TBT3); test: Mouse STING protein FP competition concentration response assay; format: binding
Protocol: A validated STING ligand, such as c-di-GMP, which is labeled with a read-out signal (e.g., a fluorescence signal such as fluorescein), is mixed with STING-CTD (e.g., mouse STING-CTD or human STING-CTD) with or without the presence of a compound of the present application. Changes in the read-out signal are measured (e.g., by fluorescence anisotropy) to determine the binding of the compound to STING-CTD.
Fluorescein labeled c-di-GMP was mixed with mSTING-CTD with or without the presence of a compound of the present application in PBS in black 384-well plates (10 μL per well). The fluorescence anisotropy was determined on a PerkinElmer EnVisions multi-mode plate reader. The plate can be read immediately after mixing the reagents or after a few hours without change of signals.
• 1) 6×his-sumo-mSTING (Supplier: HDB) • 2) 2′-Fluo-AHC-c-di GMP (BIOLOG #F009) • 3) 23-cGAMP (BIOLOG #C161) • 4) DMXAA (InvivoGen #tlrl-dmx) • 5) DMSO (Sigma. #D5879-100 mL) • 6) 10×PBS(HDB #MCP-020) • 7) Assay plate, 384-well black plate, solid black bottom (Greiner #784076) • 8) Compound dilution intermediate plate, 384 LDV plate (Labcyte #LP-0200) • 9) Liquid handler, ECHO550 (Labcyte) • 10) Liquid handler, Bravo (Aglient) • 11) Reader, Envision (PerkinElmer) • 12) Centrifuge (Eppendorf) • 13) Multichannel Pipette (Raining) • 14) 10 ml Reservoir (Corning) • 15) 15 ml centrifuge tube (Corning) • 16) Adhesive Plate seals (BioRad) Compound Preparation • a) Containers of each compound were centrifuged at 1000 rpm for 5 min. • b) Compounds were dissolved in DMSO at 30 mM. • c) Compounds were sufficiently vortexed, and centrifuged at 1000 rpm for 1 min. • d) 16 uL of the compound solution was transferred into a LDV Compound Plate. • e) 2-fold serial dilutions of the compound solution were made with DMSO, and 14 concentrations were made in the 384-well LDV Compound Plate. • f) The LDV plate was spun at 1000 rpm for 60 sec and sealed with foil (stored at −20° C. if not used immediately). • g) 335 nL of each compound from the LDV Compound Plate was transferred to Assay Plate (ECHO550). Probe Preparation • a) 200 uM probe stock (2′-Fluo-AHC-c-diGMP) was diluted by dd2O to 6 uM working concentration. • b) 10-12 uL 6 uM working solution of probe was transferred into the LDV plate. • c) 50 nL per well 6 uM working solution of probe was transferred from the LDV plate to each well of the empty Assay Plate (Greiner 784076) by ECHO550 Buffer mode. • d) Probe final concentration was 30 nM when assay system was 10 uL. • e) The Assay Plate was spun at 1000 rpm for 1 min. Compound Addition • a) After the LDV Compound Plate was prepared, 100 nL compound (ECHO550 DMSO mode) was transferred from the LDV Compound Plate into the Assay Plate (Greiner 784076) containing 50 nL probe in each well according to the Assay Plate layout. • b) DMSO final concentration was 1% when assay system was 10 uL. • c) The Assay Plate was spun at 1000 rpm for 1 min. Protein Addition • a) Aliquot of 6×his-sumo-mSTING protein was thawed on ice, briefly to generate uniform solution. • b) 66 uM stock protein was diluted in 1×PBS assay buffer to generate 8 uM final solutions. • c) For test compound and ZPE wells, 10 μL per well of 8 uM protein solutions was added into the Assay Plate containing both the probe and test compounds or DMSO using multichannel pipette. • d) For HPE wells, 10 µL/well of 1×PBS assay buffer instead of protein was added into the Assay Plate containing both the probe and DMSO using multichannel pipette. • e) The Assay Plate was spun at 1000 rpm for 1 min. • f) The Assay Plate was incubated at r.t. for 10-20 min.
The EnVision plate reader was used to record the FA value of each well immediately after mixing the reagents or after a few hours without change of signals.
The raw data and calculated data (Fluorescence anisotropy (FA)) was exported from the EnVision reader. […]

[9] = target: mSTING-R232 (Mus musculus, UniProt Q3TBT3); test: STING differential scanning fluorimetry (DSF) assay, mouse STING; settings: net shift in melting temperature

hSTING-WT, sequence (Q86WV6 140-379 H232R): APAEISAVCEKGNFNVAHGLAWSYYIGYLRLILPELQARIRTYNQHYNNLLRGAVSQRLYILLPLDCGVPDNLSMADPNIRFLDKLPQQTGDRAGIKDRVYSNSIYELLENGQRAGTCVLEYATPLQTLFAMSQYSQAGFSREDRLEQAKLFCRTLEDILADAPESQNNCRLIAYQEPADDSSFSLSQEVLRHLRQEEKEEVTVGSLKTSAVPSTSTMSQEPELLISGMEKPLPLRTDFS
hSTING-R232, sequence (Q86WV6 140-379 H232R): as above
T1 sequence (Q86WV6 140-379 G230A/H232R/R293Q): as the sequence (Q86WV6 140-379 H232R) above, with G91A, R154Q counted along it
STING protein, sequence (Q86WV6 whole entry H232R): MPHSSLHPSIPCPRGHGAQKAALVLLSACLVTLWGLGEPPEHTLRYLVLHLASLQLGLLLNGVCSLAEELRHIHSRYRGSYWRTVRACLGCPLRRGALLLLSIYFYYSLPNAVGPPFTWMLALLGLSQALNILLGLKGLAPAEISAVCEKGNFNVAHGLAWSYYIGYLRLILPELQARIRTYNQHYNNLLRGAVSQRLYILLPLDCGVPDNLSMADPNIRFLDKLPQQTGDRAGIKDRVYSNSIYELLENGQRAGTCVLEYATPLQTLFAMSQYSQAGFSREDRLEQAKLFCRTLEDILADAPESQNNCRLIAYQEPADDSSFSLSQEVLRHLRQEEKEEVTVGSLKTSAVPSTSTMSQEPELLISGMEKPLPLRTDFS
hSTING-CTD, sequence (Q86WV6 135-379): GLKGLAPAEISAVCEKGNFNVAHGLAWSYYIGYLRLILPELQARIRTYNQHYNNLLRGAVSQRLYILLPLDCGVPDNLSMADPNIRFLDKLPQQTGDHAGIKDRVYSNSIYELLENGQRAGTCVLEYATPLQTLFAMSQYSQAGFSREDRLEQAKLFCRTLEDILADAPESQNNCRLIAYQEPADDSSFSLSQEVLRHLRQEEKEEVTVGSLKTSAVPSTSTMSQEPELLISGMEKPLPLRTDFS
mSTING-CTD, sequence (Q3TBT3 134-378): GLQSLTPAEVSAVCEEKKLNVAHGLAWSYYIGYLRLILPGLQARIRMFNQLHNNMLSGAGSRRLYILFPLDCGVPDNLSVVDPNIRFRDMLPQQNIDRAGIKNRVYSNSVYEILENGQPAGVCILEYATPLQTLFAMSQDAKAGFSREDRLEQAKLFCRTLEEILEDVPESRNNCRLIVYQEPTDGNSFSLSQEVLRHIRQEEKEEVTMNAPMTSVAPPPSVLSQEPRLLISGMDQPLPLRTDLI

| Structure (SMILES) | IC50 [1] | IC50 [2] | WT_DSF_hSWAT Tm Shift (° C.) [3] | Emax [4] | IC50 [5] | HAQ_DSF_hSWAT Tm Shift (° C.) [6] | IC50 [7] | IC50 [8] | MOUSE DSF_6xHIS-SUMO Tm Shift (° C.) [9] |
| --- | --- | --- | --- | --- | --- | --- | --- | --- | --- |
| C#Cc1c(Cl)ccc2c(=O)c3ccccc3n(CC(=O)O)c12 [Compound 197] | > 300 µM | > 300 µM | C (“C” = 2-7° C,) | < 5% |  |  |  |  |  |
| O=C(O)Cn1c2cc(-c3ccc(O)cc3)ccc2c(=O)c2ccc(Cl)c(Cl)c21 [Compound 223] | 20 to 100 µM | 20 to 100 µM | C (“C” = 2-7° C,) | < 5% | < 20 µM | D (“D” > 7° C.) |  |  |  |
| O=C(O)Cn1c2cc(-c3ccccc3)ccc2c(=O)c2ccc(Cl)c(Br)c21 [Compound 177] | 20 to 100 µM | 100 to 300 µM | C (“C” = 2-7° C,) | < 5% | 20 to 100 µM |  |  |  |  |
| O=C(O)Cn1c2cc(Nc3ccc(F)cc3F)ccc2c(=O)c2ccc(Cl)c(Cl)c21 [Compound 221] | < 20 µM | 20 to 100 µM | D (“D” > 7° C.) | > 50% |  | D (“D” > 7° C.) |  |  |  |
| COc1c(Cl)ccc2c(=O)c3ccc(C4CCCCC4)cc3n(CC(=O)O)c12 [Compound 220] | < 20 µM | 20 to 100 µM | D (“D” > 7° C.) | > 50% | 20 to 100 µM | D (“D” > 7° C.) |  |  |  |
| O=C(O)Cn1c2ccccc2c(=O)c2ccc(Cl)c(Cl)c21 [Compound 13] | > 300 µM |  | B (“B” = 0-2° C.) |  | > 300 µM |  | 100 to 500 µM | 10 to 50 µM | C (“C” = 5-15° C.) |
| CC1(C)CCC(c2ccc3c(=O)c4ccc(Cl)c(Cl)c4n(CC(=O)O)c3c2)CC1 [Compound 160] | 20 to 100 µM |  | B (“B” = 0-2° C.) | 5 to 25% |  | B (“B” = 0-2° C.) |  |  | D (“D” > 15° C.) |
| Cc1ccc(S(=O)(=O)NC(=O)Cn2c3cc(C(C)C)ccc3c(=O)c3ccc(Cl)c(Cl)c32)cc1 [Compound 351] | 20 to 100 µM |  | A (“A” < 0° C.) | < 5% |  | A (“A” < 0° C.) |  |  |  |
| O=C(O)Cn1c2cc(-c3cccc(C(F)(F)F)c3)ccc2c(=O)c2ccc(Cl)c(Cl)c21 [Compound 161] | 20 to 100 µM |  | B (“B” = 0-2° C.) | < 5% |  | B (“B” = 0-2° C.) |  |  | D (“D” > 15° C.) |
| CC(C)c1ccc2c(=O)c3ccc(Cl)c(Br)c3n(CC(=O)NS(C)(=O)=O)c2c1 [Compound 350] | 100 to 300 µM |  | C (“C” = 2-7° C,) | < 5% |  | C (“C” = 2-7° C,) |  |  |  |
| O=C(O)Cn1c2cc(C3CCCC3)ccc2c(=O)c2ccc(Cl)c(Cl)c21 [Compound 113] | 20 to 100 µM |  | C (“C” = 2-7° C,) | 5 to 25% | < 20 µM | C (“C” = 2-7° C,) |  |  | D (“D” > 15° C.) |
| COc1c(Cl)ccc2c(=O)c3ccc(C4=CCCCC4)cc3n(CC(=O)O)c12 [Compound 219] | < 20 µM | 20 to 100 µM | D (“D” > 7° C.) |  | < 20 µM |  |  |  |  |
| Cc1ccc(-c2ccc3c(=O)c4ccc(Cl)c(Cl)c4n(CC(=O)O)c3c2)cc1Cl [Compound 164] | 20 to 100 µM |  | B (“B” = 0-2° C.) |  |  | B (“B” = 0-2° C.) |  |  | D (“D” > 15° C.) |
| CC(C)c1ccc2c(=O)c3ccc(Cl)c(C(F)(F)F)c3n(CC(=O)O)c2c1 [Compound 192] | 20 to 100 µM | 20 to 100 µM | A (“A” < 0° C.) | < 5% | 100 to 300 µM |  |  |  | B (“B” = 0-5° C.) |
| O=C(O)Cn1c2cc(Nc3ncccn3)ccc2c(=O)c2ccc(Cl)c(Cl)c21 [Compound 216] | 20 to 100 µM | 20 to 100 µM | C (“C” = 2-7° C,) | > 50% | < 20 µM |  |  |  | D (“D” > 15° C.) |
| CSc1c(Cl)ccc2c(=O)c3ccccc3n(CC(=O)O)c12 [Compound 212] | 100 to 300 µM | > 300 µM | C (“C” = 2-7° C,) |  | 100 to 300 µM |  |  |  |  |
| O=C(O)Cn1c2cc(Nc3ccccc3)ccc2c(=O)c2ccc(Cl)c(Cl)c21 [Compound 181] | < 20 µM | 20 to 100 µM | D (“D” > 7° C.) | > 50% | < 20 µM |  |  |  | D (“D” > 15° C.) |
